Experiment [1] concerns Pseudomonas aeruginosa NCIMB 8626. Nature of the experiment: Zone of inhibition, seeded Mueller-Hinton agar plug-hole assay. The experiment is classed as cell-based. Particulars: 10 mg compound + 200 ul sterile water per 8 mm plug hole, 37° C., 24 hours, triplicates averaged. Here is the method:
(§1) Pseudomonas aeruginosa NCIMB 8626 and Staphylococcus aureus NCTC 10788 were harvested. Serial 1:10 dilutions were performed to give a final concentration of 10^8 bacteria/ml. Further dilutions were made for an inoculum count, down to […], with the number of bacteria/ml determined using the pour plate method.
(§2) Two large assay plates were then set up and 140 ml of Mueller-Hinton agar was added evenly to the large assay plates and allowed to dry (15 minutes). A further 140 ml of agar was seeded with the corresponding test organism and poured over the previous agar layer. Once the agar had set (15 minutes), the plate was dried at 37° C. for 30 minutes with the lid removed. 8 mm plugs were removed from the plate by biopsy punch.
(§3) In triplicate, 10 mg of the compounds prepared in Examples 1-3 were placed onto each plug hole followed by 200 ul sterile water. The plates were then sealed and incubated at 37° C. for 24 hours. The size of the microbial, including bacterial, zone cleared was measured using a Vernier calliper gauge, triplicates were averaged: […]

Experiment [2] has as its system Staphylococcus aureus NCTC 10788. Described as above. The experiment is classed as cell-based. Particulars: 10 mg compound + 200 ul sterile water per 8 mm plug hole, 37° C., 24 hours, triplicates averaged. Here is the method:
as §1, §2, §3

The record followed here is US9751833B2, “Antimicrobial biguanide metal complexes” (Smith & Nephew PLC, priority 2005, dated 2017).

In the case of “Silver(III) o-tolybiguanide Complex [Example 3]”, the results for the “Zone of Inhibition” value in experiment [1] and in experiment [2] were 7.4 mm and 8.4 mm, respectively.
In the case of “Silver(III) Chlorhexidine (1,1′-hexamethylenebis[5-(p-chlorophenyl)biguanide] Complex [Example 1]”, the “Zone of Inhibition” value in experiment [1] was 5.4 mm; in experiment [2], 6.4 mm.
